According to ChEMBL document CHEMBL4814063, “Discovery of Diaminopyrimidine Carboxamide HPK1 Inhibitors as Preclinical Immunotherapy Tool Compounds” (ACS Med Chem Lett, 2021):
Converted amounts (≈) assume the structure as drawn.

Tests used:
[1] = Apparent permeability in dog MDCK-II cells; type: ADME, cell-based, Canis lupus familiaris
[2] = Metabolic stability in rat hepatocytes assessed as intrinsic clearance; type: ADME, cell-based, Hepatocyte
[3] = Solubility of compound at pH 7; type: physicochemical; settings: buffer
[4] = Solubility of compound at pH 2; type: physicochemical; settings: buffer
[5] = Fraction unbound clearance in C57BL/6 mouse at 10 mg/kg, po or 1 mg/kg, iv; type: ADME, organism-based; settings: in vivo
[6] = Volume of distribution in Wistar Han rat at 0.1 mg/kg, iv; type: ADME, organism-based; settings: in vivo
[7] = Volume of distribution in C57BL/6 mouse at 10 mg/kg, po or 1 mg/kg, iv; type: ADME, organism-based; settings: in vivo
[8] = MRT in Wistar Han rat at 0.1 mg/kg, iv; type: ADME, organism-based; settings: in vivo
[9] = Clearance in Wistar Han rat at 0.1 mg/kg, iv; type: ADME, organism-based; settings: in vivo
[10] = Clearance in C57BL/6 mouse at 10 mg/kg, po or 1 mg/kg, iv; type: ADME, organism-based; settings: in vivo
[11] = MRT in C57BL/6 mouse at 10 mg/kg, po or 1 mg/kg, iv; type: ADME, organism-based; settings: in vivo
[12] = Unbound clearance in Wistar Han rat at 0.1 mg/kg, iv; type: ADME, organism-based; settings: in vivo
[13] = Oral bioavailability in C57BL/6 mouse at 10 mg/kg; type: ADME, organism-based; settings: in vivo
[14] = AUC in C57BL/6 mouse at 100 mg/kg, po measured after 8 hrs; type: ADME, organism-based; set-up: route oral, dose 100 mg/kg, time 8 hrs; settings: in vivo
[15] = tested on: Dendritic cell; assay: […] in human monocyte derived dendritic cell assessed as increase in IL-6 production incubated for 24 hrs by ELISA; type: functional, cell-based
[16] = tested on: Dendritic cell; assay: […] in human monocyte derived dendritic cell assessed as increase in TNF-alpha production incubated for 24 hrs by ELISA; type: functional, cell-based

| Compound | Papp [1] [×10⁻⁶ cm/s] | CLint [2] [µL/min/1e6 cells] | solubility [3] [µM] | solubility [4] [µM] | CL free [5] [mL/min/kg] | Vd [6] [L/kg] | Vd [7] [L/kg] | MRT [8] [min] | clearance [9] [mL/min/kg] | clearance [10] [mL/min/kg] | MRT [11] [min] | CL free [12] [mL/min/kg] | bioavailability [13] [%] | AUC [14] [µM·h] | Activity [15] | Activity [16] |
| --- | --- | --- | --- | --- | --- | --- | --- | --- | --- | --- | --- | --- | --- | --- | --- | --- |
| COc1cc2c(cc1Nc1nccc(Nc3ccccc3)n1)CN(C)CC2 | – | – | 147 (≈ 53.1 µg/mL) | 160 (≈ 57.8 µg/mL) | – | – | – | – | – | – | – | – | – | – | – | – |
| COc1cc2c(cc1Nc1ncc(C(N)=O)c(Nc3ccccc3[C@H](C)OC)n1)CN(C)CC2 | 3.1 | – | – | – | 2452 | 1.8 | 1 | 30 | 56 | 52 | 19.8 | 2057 | 9 | – | – | – |
| COc1cc2c(cc1Nc1ncc(C)c(Nc3ccccc3)n1)CN(C)CC2 | – | – | 152 (≈ 57.1 µg/mL) | 179 (≈ 67.2 µg/mL) | – | – | – | – | – | – | – | – | – | – | – | – |
| COc1cc2c(cc1Nc1ncc(C(N)=O)c(Nc3ccccc3CO)n1)CN(C)CC2 | 0.54 | – | – | – | 792 | 65 | 29 | 120 | 88 | 67 | 39.6 | 548 | 7.9 | 102 | – | – |
| COc1cc2c(cc1Nc1ncc(C(N)=O)c(Nc3ccccc3)n1)CN(C)CC2 | 2.5 | 70 | 92 (≈ 37.2 µg/mL) | 166 (≈ 67.1 µg/mL) | 2532 | – | – | 126 | 19 | 46 | 72 | 415 | 17 | – | – | – |
| COc1cc2c(cc1Nc1ncc(C(N)=O)c(NC3CCCC3)n1)CN(C)CC2 | 3.6 | 28 | 7 (≈ 2.78 µg/mL) | – | – | – | – | – | – | – | – | – | – | – | – | – |
| COc1cc2c(cc1Nc1ncc(C(F)(F)F)c(Nc3ccccc3)n1)CN(C)CC2 | – | – | 96 (≈ 41.2 µg/mL) | 157 (≈ 67.4 µg/mL) | – | – | – | – | – | – | – | – | – | – | – | – |

More lines, main results first:

| Papp [1] [×10⁻⁶ cm/s] | CLint [2] [µL/min/1e6 cells] | solubility [3] [µM] | solubility [4] [µM] | CL free [5] [mL/min/kg] | Vd [6] [L/kg] | Vd [7] [L/kg] | MRT [8] [min] | clearance [9] [mL/min/kg] | clearance [10] [mL/min/kg] | MRT [11] [min] | CL free [12] [mL/min/kg] | bioavailability [13] [%] | AUC [14] [µM·h] | Compound | Activity [15] | Activity [16] |
| --- | --- | --- | --- | --- | --- | --- | --- | --- | --- | --- | --- | --- | --- | --- | --- | --- |
| 2.12 | 33 | < 2 | – | – | – | – | – | – | – | – | – | – | – | COc1cc2c(cc1Nc1ncc(C(N)=O)c(Nc3ccccc3Br)n1)CN(C)CC2 | – | – |
| 2.78 | 69 | 9 (≈ 3.93 µg/mL) | – | – | – | – | – | – | – | – | – | – | – | COc1cc2c(cc1Nc1ncc(C(N)=O)c(Nc3c(C)cccc3F)n1)CN(C)CC2 | – | – |
| 2.9 | – | – | – | 2170 | 2 | 61 | 78 | 28 | 30 | 28.8 | 1529 | 13 | – | COc1cc2c(cc1Nc1ncc(C(N)=O)c(Nc3c(F)cccc3C(F)(F)F)n1)CN(C)CC2 | Dose-Dependent Effect | Dose-Dependent Effect |
